From patent US8476292B2, “Amide and carbamate derivatives of N-{2-[4-amino-2-(ethoxymethyl)-1H-imidazo[4,5-c] quinolin-1-Yl]-1,1-dimethylethyl}methanesulfonamide and methods” (3M Innovative Properties Company, priority 2005, dated 2013)

Question: With `CCOCc1nc2c(NC(C)=O)nc3ccccc3c2n1CC(C)(C)NS(C)(=O)=O` [Example 1, N-(2-Ethoxymethyl-1-{2-methyl-2-[(methylsulfonyl)amino]propyl}-1H-imidazo[4,5-c]quinolin-4-yl)acetamide] as the compound, how does the melting point read?
Answer: The melting point was 75 to 76 °C.

Question: Which melting point does the source give for `CCOCc1nc2c(NC(=O)c3ccccc3)nc3ccccc3c2n1CC(C)(C)NS(C)(=O)=O` [Example 2, N-(2-Ethoxymethyl-1-{2-methyl-2-[(methylsulfonyl)amino]propyl}-1H-imidazo[4,5-c]quinolin-4-yl)benzamide] here?
Answer: Its melting point is 80 to 83 °C.

Question: With `CCOCc1nc2c(NC(=O)C(C)C)nc3ccccc3c2n1CC(C)(C)NS(C)(=O)=O` [Example 3] as the compound, how does the melting point read?
Answer: The melting point was 67 to 70 °C.

Question: For `CCOCc1nc2c(NC(=O)OCC)nc3ccccc3c2n1CC(C)(C)NS(C)(=O)=O` [Example 5, Ethyl 2-Ethoxymethyl-1-{2-methyl-2-[(methylsulfonyl)amino]propyl}-1H-imidazo[4,5-c]quinolin-4-ylcarbamate], which melting point is on record?
Answer: Its melting point is 163 to 165 °C.

Question: With `CCCOC(=O)Nc1nc2ccccc2c2c1nc(COCC)n2CC(C)(C)NS(C)(=O)=O` [Example 6, Propyl 2-Ethoxymethyl-1-{2-methyl-2-[(methylsulfonyl)amino]propyl}-1H-imidazo[4,5-c]quinolin-4-ylcarbamate] as the compound, how does the melting point read?
Answer: Its melting point is 177 to 179 °C.

Question: For `CCCCOC(=O)Nc1nc2ccccc2c2c1nc(COCC)n2CC(C)(C)NS(C)(=O)=O` [Example 7, Butyl 2-Ethoxymethyl-1-{2-methyl-2-[(methylsulfonyl)amino]propyl}-1H-imidazo[4,5-c]quinolin-4-ylcarbamate], which melting point is on record?
Answer: Its melting point is 125 to 127 °C.
